In brackets after ≈: the same amount, converted by molar mass.
Experiments:
Assay type in all cases: functional
Aspergillus niger [1] = assay: Potency index, ratio for MIC of fluconazole to MIC of compound for antifungal activity against Aspergillus niger
Saccharomyces cerevisiae = assay: Potency index, ratio for MIC of fluconazole to MIC of compound for antifungal activity against Saccharomyces cerevisiae
Aspergillus fumigatus [2] = assay: Potency index, ratio for MIC of fluconazole to MIC of compound for antifungal activity against Aspergillus fumigatus
Candida tropicalis [3] = assay: Antifungal activity against Candida tropicalis assessed as reduction in fungal cell growth incubated for 48 hrs by broth microdilution method
Aspergillus niger [4] = assay: Antifungal activity against Aspergillus niger assessed as reduction in fungal cell growth incubated for 72 hrs by broth microdilution method
Nakaseomyces glabratus [5] = assay: Antifungal activity against Candida glabrata assessed as reduction in fungal cell growth incubated for 48 hrs by broth microdilution method
Candida parapsilosis = assay: Antifungal activity against Candida parapsilosis ATCC 22019 assessed as reduction in fungal cell growth incubated for 48 hrs by broth microdilution method; details: Lodderomyces parapsilosis, ATCC 22019, 48 h
Cryptococcus neoformans = assay: Antifungal activity against Cryptococcus neoformans LA314 assessed as reduction in fungal cell growth incubated for 48 hrs by broth microdilution method; details: LA314, 48 h
Pichia kudriavzevii [6] = assay: Antifungal activity against Candida krusei assessed as reduction in fungal cell growth incubated for 48 hrs by broth microdilution method
Candida albicans [7] = assay: Antifungal activity against Candida albicans V-01-191A-261 assessed as reduction in fungal cell growth incubated for 48 hrs by broth microdilution method; details: V-01-191A-261, 48 h
Aspergillus fumigatus [8] = assay: Antifungal activity against Aspergillus fumigatus NCIM 902 assessed as reduction in fungal cell growth incubated for 3 to 4 days by disk diffusion method
Aspergillus flavus [9] = assay: Antifungal activity against Aspergillus flavus NCIM 524 assessed as reduction in fungal cell growth incubated for 3 to 4 days by disk diffusion method
[10] = tested on: Trichophyton mentagrophytes; assay: Antifungal activity against Trichophyton mentagrophytes assessed as reduction in fungal cell growth incubated for 3 to 4 days by disk diffusion method
Candida albicans [11] = assay: Antifungal activity against Candida albicans assessed as reduction in fungal cell growth incubated for 48 hrs by broth microdilution method
Talaromyces marneffei = assay: Antifungal activity against Penicillium marneffei assessed as reduction in fungal cell growth incubated for 3 to 4 days by disk diffusion method
Aspergillus flavus [12] = assay: Antifungal activity against Aspergillus flavus
Aspergillus fumigatus [13] = assay: Antifungal activity against Aspergillus fumigatus
Pichia kudriavzevii [14] = assay: Antifungal activity against Candida krusei assessed as reduction in fungal cell growth incubated for 24 hrs by broth microdilution method
Candida tropicalis [15] = assay: Antifungal activity against Candida tropicalis assessed as reduction in fungal cell growth incubated for 24 hrs by broth microdilution method
Nakaseomyces glabratus [16] = assay: Antifungal activity against Candida glabrata assessed as reduction in fungal cell growth incubated for 24 hrs by broth microdilution method
Candida albicans [17] = assay: Antifungal activity against Candida albicans assessed as reduction in fungal cell growth incubated for 24 hrs by broth microdilution method
Aspergillus flavus [18] = assay: Antifungal activity against Aspergillus flavus assessed as reduction in fungal cell growth incubated for 24 and 72 hrs by cup plate method
Candida albicans [19] = assay: Antifungal activity against Candida albicans MTCC 227 assessed as reduction in fungal cell growth incubated for 24 and 48 hrs by broth microdilution method
Candida albicans [20] = assay: Antifungal activity against Candida albicans assessed as reduction in fungal cell growth incubated for 24 and 72 hrs by cup plate method
Aspergillus fumigatus [21] = assay: Antifungal activity against Aspergillus fumigatus assessed as inhibition zone at 1 ug/ml incubated for 24 to 72 hrs by disk diffusion method; details: read-out: IZ
Aspergillus niger [22] = assay: Antifungal activity against Aspergillus niger assessed as inhibition zone at 1 ug/ml incubated for 24 to 72 hrs by disk diffusion method; details: read-out: IZ
Aspergillus flavus [23] = assay: Antifungal activity against Aspergillus flavus assessed as inhibition zone at 1 ug/ml incubated for 24 to 72 hrs by disk diffusion method; details: read-out: IZ
Trichoderma harzianum = assay: Antifungal activity against Trichoderma harzianum assessed as inhibition zone at 1 ug/ml incubated for 24 to 72 hrs by disk diffusion method; details: read-out: IZ
Candida albicans [24] = assay: Antifungal activity against Candida albicans
Nakaseomyces glabratus [25] = assay: Antifungal activity against Candida glabrata ATCC 36583 by broth microdilution method
Candida tropicalis [26] = assay: Antifungal activity against Candida tropicalis by broth microdilution method
Candida albicans [27] = assay: Antifungal activity against Candida albicans MTCC183 assessed as reduction in fungal cell growth incubated for 24 to 48 hrs
Aspergillus niger [28] = assay: Antifungal activity against Aspergillus niger MTCC281 assessed as reduction in fungal cell growth incubated for 24 to 48 hrs

For `Nc1nc(-c2ccc(-n3cnnn3)cc2)cc(-c2ccc(OC(F)F)c(O)c2)n1`, the Ratio (Aspergillus niger [1]) was “>=2”, the Ratio (Saccharomyces cerevisiae) was “>=2” and the Ratio (Aspergillus fumigatus [2]) was “>=2”.
With `C[C@@H](c1ncncc1F)[C@](O)(Cn1cncn1)c1ccc(F)cc1F` [VORICONAZOLE] the MIC (Candida tropicalis [3]) was 0.015 to 0.5 µg/mL (≈ 0.0429 to 1.43 µM), the MIC (Aspergillus niger [4]) was 0.015 to 0.5 µg/mL (≈ 0.0429 to 1.43 µM) and the MIC (Nakaseomyces glabratus [5]) was 0.015 to 0.5 µg/mL (≈ 0.0429 to 1.43 µM). The MIC (Candida parapsilosis) was 0.015 to 0.5 µg/mL (≈ 0.0429 to 1.43 µM), the MIC (Cryptococcus neoformans) was 0.015 to 0.5 µg/mL (≈ 0.0429 to 1.43 µM) and the MIC (Pichia kudriavzevii [6]) was 0.015 to 0.5 µg/mL (≈ 0.0429 to 1.43 µM). The MIC (Candida albicans [7]) was 0.015 to 0.5 µg/mL (≈ 0.0429 to 1.43 µM).
`CCC(C)n1ncn(-c2ccc(N3CCN(c4ccc(OCC5COC(Cn6cncn6)(c6ccc(Cl)cc6Cl)O5)cc4)CC3)cc2)c1=O` (configuration not stated) [ITRACONAZOLE] gave an MIC (Aspergillus fumigatus [8]) of 6.25 µg/mL (≈ 8.86 µM), an MIC (Aspergillus flavus [9]) of 6.25 µg/mL (≈ 8.86 µM) and an MIC [10] of 6.25 µg/mL (≈ 8.86 µM). The MIC (Candida albicans [11]) was 0.007 to 0.5 µg/mL (≈ 0.00992 to 0.709 µM), the MIC (Candida tropicalis [3]) was 0.007 to 0.5 µg/mL (≈ 0.00992 to 0.709 µM) and the MIC (Aspergillus niger [4]) was 0.007 to 0.5 µg/mL (≈ 0.00992 to 0.709 µM). It also gave an MIC (Talaromyces marneffei) of 6.25 µg/mL (≈ 8.86 µM), an MIC (Nakaseomyces glabratus [5]) of 0.007 to 0.5 µg/mL (≈ 0.00992 to 0.709 µM) and an MIC (Candida parapsilosis) of 0.007 to 0.5 µg/mL (≈ 0.00992 to 0.709 µM). It also gave an MIC (Cryptococcus neoformans) of 0.007 to 0.5 µg/mL (≈ 0.00992 to 0.709 µM) and an MIC (Pichia kudriavzevii [6]) of 0.007 to 0.5 µg/mL (≈ 0.00992 to 0.709 µM).
In the case of `CC[C@@H]([C@H](C)O)n1ncn(-c2ccc(N3CCN(c4ccc(OC[C@@H]5CO[C@@](Cn6cncn6)(c6ccc(F)cc6F)C5)cc4)CC3)cc2)c1=O` [POSACONAZOLE], the MIC (Candida tropicalis [3]) is reported as 0.12 to 1 µg/mL (≈ 0.171 to 1.43 µM), the MIC (Aspergillus niger [4]) is reported as 0.12 to 1 µg/mL (≈ 0.171 to 1.43 µM) and the MIC (Nakaseomyces glabratus [5]) is reported as 0.12 to 1 µg/mL (≈ 0.171 to 1.43 µM). For the same compound, the MIC (Candida parapsilosis) was 0.12 to 1 µg/mL (≈ 0.171 to 1.43 µM), the MIC (Cryptococcus neoformans) was 0.12 to 1 µg/mL (≈ 0.171 to 1.43 µM) and the MIC (Pichia kudriavzevii [6]) was 0.12 to 1 µg/mL (≈ 0.171 to 1.43 µM). For the same compound, the MIC (Candida albicans [7]) was 0.12 to 1 µg/mL (≈ 0.171 to 1.43 µM).
Work on `O=C(/C=C/c1ccc(OC(F)F)c(O)c1)c1ccc(-n2cnnn2)cc1` yielded a Ratio (Aspergillus niger [1]) greater than 4 and a Ratio (Aspergillus fumigatus [2]) greater than 4.
`CC[C@H]1O[C@@H](/C(C)=C/[C@H](C)/C=C/[C@@H]2[C@@H](C)[C@@H]2/C=C/[C@@H]2O[C@H](Cc3nn[nH]n3)C[C@H](N(C)C)[C@H]2O)CC=C1C` showed an MIC (Aspergillus flavus [12]) of 1.5 µg/mL (≈ 2.85 µM) and an MIC (Aspergillus fumigatus [13]) of 1.5 µg/mL (≈ 2.85 µM).
`Fc1cc2nc(SCc3ccc(-c4ccccc4-c4nnnn4C(c4ccccc4)(c4ccccc4)c4ccccc4)cc3)[nH]c2cc1Oc1ccc(Cl)cc1` showed an MIC (Pichia kudriavzevii [14]) of 16 µg/mL (≈ 20.7 µM), an MIC (Candida tropicalis [15]) of 16 µg/mL (≈ 20.7 µM) and an MIC (Nakaseomyces glabratus [16]) of 16 µg/mL (≈ 20.7 µM). For the same compound, the MIC (Candida albicans [17]) was 16 µg/mL (≈ 20.7 µM).
For `COC1=CC(=O)C[C@@H](C)[C@]12Oc1c(Cl)c(OC)cc(OC)c1C2=O` [GRISEOFULVIN], the MIC (Aspergillus flavus [18]) was 10 µg/mL (≈ 28.3 µM), the MIC (Candida albicans [19]) was 500 µg/mL (≈ 1420 µM) and the MIC (Candida albicans [20]) was 10 µg/mL (≈ 28.3 µM).
`N#Cc1c(-c2ccco2)nc2sc3c4nnnn4cnc3n2c1=O` gave a zone of inhibition at 1 µg/mL (Aspergillus fumigatus [21]) of 1.8 to 2.5 mm, a zone of inhibition at 1 µg/mL (Aspergillus niger [22]) of 1.8 to 2.5 mm and a zone of inhibition at 1 µg/mL (Aspergillus flavus [23]) of 1.8 to 2.5 mm. The zone of inhibition at 1 µg/mL (Trichoderma harzianum) was 1.8 to 2.5 mm.
`Cn1nnnc1SCC(=O)Nc1ccc(-c2nc3cc(Cl)c(Cl)cc3n2C)cc1` was tested, and the MIC (Candida albicans [24]) was 25 to 50 µg/mL (≈ 55.8 to 112 µM), the MIC (Nakaseomyces glabratus [25]) was 25 to 50 µg/mL (≈ 55.8 to 112 µM) and the MIC (Candida tropicalis [26]) was 25 to 50 µg/mL (≈ 55.8 to 112 µM).
In the case of `CCn1nnnc1SCCCSc1nnnn1-c1ccccc1`, the MIC (Aspergillus fumigatus [8]) is reported as 6.25 to 50 µg/mL (≈ 17.9 to 143 µM), the MIC (Aspergillus flavus [9]) is reported as 6.25 to 50 µg/mL (≈ 17.9 to 143 µM) and the MIC [10] is reported as 6.25 to 50 µg/mL (≈ 17.9 to 143 µM). The MIC (Talaromyces marneffei) was 6.25 to 50 µg/mL (≈ 17.9 to 143 µM).
Work on `c1cnc(-c2nn3nnnc3o2)cn1` yielded an MIC (Candida albicans [27]) of 50 µg/mL (≈ 264 µM) and an MIC (Aspergillus niger [28]) of 100 µg/mL (≈ 529 µM).

Reference: ChEMBL document CHEMBL4393657, “Tetrazole hybrids and their antifungal activities” (2019)
